Values joined by “and” are separate entries in the source; they are usually repeats but may differ in a detail not shown here. Equal entries are not always repeated. Each block holds one compound with its values, some of them ahead of it.
Experiments:
SNAT2 [1] = biological target: T1, SNAT2 (Homo sapiens, UniProt Q96QD8); experiment: FMP assay with betaine in amino acid depleted SKOV3 cells; format: cell-based; set-up: SKOV3 cells were pre-incubated in starvation medium for 15 h to induce SNAT2 expression; endogenous in cells; host or cells: SKOV3 ovarian cancer cells, amino acid depleted for 15 h
T1 sequence (Q96QD8 1-506): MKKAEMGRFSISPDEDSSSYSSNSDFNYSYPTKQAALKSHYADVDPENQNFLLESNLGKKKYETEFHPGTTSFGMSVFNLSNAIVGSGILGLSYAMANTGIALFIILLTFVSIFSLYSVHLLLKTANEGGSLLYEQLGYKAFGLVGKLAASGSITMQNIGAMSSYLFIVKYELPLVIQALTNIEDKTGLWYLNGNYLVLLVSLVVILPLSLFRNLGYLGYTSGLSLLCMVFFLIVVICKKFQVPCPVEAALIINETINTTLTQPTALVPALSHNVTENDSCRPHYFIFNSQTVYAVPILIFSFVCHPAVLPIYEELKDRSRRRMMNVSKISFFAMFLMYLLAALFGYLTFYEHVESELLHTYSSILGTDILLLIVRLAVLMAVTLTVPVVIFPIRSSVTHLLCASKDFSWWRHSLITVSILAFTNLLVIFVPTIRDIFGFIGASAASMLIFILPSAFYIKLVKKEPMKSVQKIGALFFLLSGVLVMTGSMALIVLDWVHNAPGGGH
Experimental: The FLIPR Membrane Potential Blue Explorer Kit (Molecular Devices) was used to characterise inhibitors and to optimise a high-throughput compound screen. Cells were seeded at approximately 60,000 cells/well on a 96-well plate and allowed to attach and grow overnight in a cell incubator. The next day, the cells were washed once with mHBSS and incubated in a starvation medium (composed of mHBSS with 1% dialysed heat-inactivated FBS, 23 mM NaHCO3, 10 U/ml penicillin and 10 μg/ml streptomycin) for 24 h. Cells were then washed once with mHBSS and incubated with 50 µl of the mHBSS-resuspended FMP assay dye and 50 µl of mHBSS (with or without inhibitors) and incubated at room temperature for 30 min. The plate was then placed in an EnSpire Multimode plate reader (PerkinElmer) and four sequential measurements of fluorescence were recorded as a baseline reference. […] The excitation wavelength was set to 530 nm and the emission was detected at 565 nm. The Δ fluorescent signal reported in the figures was taken 30 s after substrate addition. After the assay was complete, the liquid content of the plate was carefully removed, and the cell monolayer inspected to ensure it remained intact throughout the course of the assay.

SKOV3 cells = experiment: [14C]alanine uptake in non-depleted SKOV3 cells; format: cell-based, human; conditions: amino acid replete SKOV3 cells
Experimental: (§1) Functional characterisation of plasma membrane transporters in human cancer cells was determined at 37°C using an array of radiolabelled amino acid substrates. Modified Hanks HEPES-buffered salts solution (mHBSS; 137 mM NaCl; 5.4 mM KCl; 2.7 mM K2HPO4; 1 mM CaCl2; 0.5 mM MgCl2; 0.44 mM KH2PO4; 0.4 mM MgSO4; 5 mM D-glucose; 5 mM HEPES; pH 7.4) was used to wash and incubate cells where sodium dependent transport was measured, while N-methyl-D-glucamine (NMDG) and potassium salts substituted sodium in NMDG mHBSS to measure sodium independent uptake. For the assay, cells were seeded in 35 mm dishes and, once confluent, were washed thrice with warm mHBSS solution and incubated with mHBSS containing an 100 µM amino acid at a final specific activity of ≥2000 cpm/nmol (U-[^14C]amino acids were from PerkinElmer). After 6 min, cells were washed thrice with ice-cold mHBSS, lysed with 500 µl of 0.1 M HCl, detached with a cell scraper and triturated. A 400 µl aliquot was used for scintillation counting, while the remainder was saved for protein mass quantification by Bradford assay. Transport rates were normalised to the protein content of the culture dish.

SNAT2 [2] = biological target: T1, SNAT2; experiment: Radiolabelled proline uptake in amino acid depleted SKOV3 cells; format: cell-based; set-up: SKOV3 cells pre-incubated in starvation medium for 24 h to induce SNAT2 expression; endogenous in cells; host or cells: SKOV3 ovarian cancer cells, amino acid depleted for 15 or 24 h
Experimental: as §1
IC50 were calculated using equation y=ymax(1−x/x+IC50)

- Km (SNAT2 [1]; SKOV3, 15 h starvation): 4.3 ± 0.4 mM
- FMP fluorescence trace (Figure 4E) (SNAT2 [1]; concentration 0.03, time 45): 36191 and 39302 and 41186
- FMP fluorescence trace (Figure 4E) (SNAT2 [1]; concentration 0.03, time 60): 36028 and 39595 and 40874
- FMP fluorescence trace (Figure 4E) (SNAT2 [1]; concentration 0.03, time 75): 36276 and 39484 and 40680
- FMP fluorescence trace (Figure 4E) (SNAT2 [1]; concentration 0.03, time 90): 36701 and 39571 and 40731
- FMP fluorescence trace (Figure 4E) (SNAT2 [1]; concentration 0.03, time 105): 36288
- FMP fluorescence trace (Figure 4E) (SNAT2 [1]; concentration 0.1, time 45): 39809 and 43033 and 44738
- FMP fluorescence trace (Figure 4E) (SNAT2 [1]; concentration 0.1, time 60): 40091 and 43354 and 44846
- FMP fluorescence trace (Figure 4E) (SNAT2 [1]; concentration 0.1, time 75): 40044 and 43600 and 44897
- FMP fluorescence trace (Figure 4E) (SNAT2 [1]; concentration 0.1, time 90): 40287 and 43518 and 45010
- FMP fluorescence trace (Figure 4E) (SNAT2 [1]; concentration 0.3, time 45): 39193 and 54954 and 48855
- FMP fluorescence trace (Figure 4E) (SNAT2 [1]; concentration 0.3, time 60): 39317 and 55361 and 48804
- FMP fluorescence trace (Figure 4E) (SNAT2 [1]; concentration 0.3, time 75): 39855 and 55442 and 48718
- FMP fluorescence trace (Figure 4E) (SNAT2 [1]; concentration 0.3, time 90): 39384 and 55296 and 48820
- FMP fluorescence trace (Figure 4E) (SNAT2 [1]; concentration 0.3, time 105): 39825 and 55517 and 48933
- FMP fluorescence trace (Figure 4E) (SNAT2 [1]; concentration 1, time 45): 52793 and 67651 and 60777
- FMP fluorescence trace (Figure 4E) (SNAT2 [1]; concentration 1, time 60): 53223 and 68372 and 61573
- FMP fluorescence trace (Figure 4E) (SNAT2 [1]; concentration 1, time 75): 53467 and 68816 and 61749
- FMP fluorescence trace (Figure 4E) (SNAT2 [1]; concentration 1, time 90): 53620 and 69372 and 62182
- FMP fluorescence trace (Figure 4E) (SNAT2 [1]; concentration 1, time 105): 53487 and 69294 and 62105
- FMP fluorescence trace (Figure 4E) (SNAT2 [1]; concentration 3, time 45): 69502 and 81716 and 75888
- FMP fluorescence trace (Figure 4E) (SNAT2 [1]; concentration 3, time 60): 70408 and 83092 and 76997
- FMP fluorescence trace (Figure 4E) (SNAT2 [1]; concentration 3, time 75): 71034 and 84131 and 77980
- FMP fluorescence trace (Figure 4E) (SNAT2 [1]; concentration 3, time 90): 71787 and 84660 and 78697
- FMP fluorescence trace (Figure 4E) (SNAT2 [1]; concentration 3, time 105): 71870 and 85004 and 78476
- FMP fluorescence trace (Figure 4E) (SNAT2 [1]; concentration 10, time 45): 84051 and 99553 and 93004
- FMP fluorescence trace (Figure 4E) (SNAT2 [1]; concentration 10, time 60): 86308 and 101988 and 95225
- FMP fluorescence trace (Figure 4E) (SNAT2 [1]; concentration 10, time 75): 87856 and 103721 and 96631
- FMP fluorescence trace (Figure 4E) (SNAT2 [1]; concentration 10, time 90): 88823 and 104893 and 97518
- FMP fluorescence trace (Figure 4E) (SNAT2 [1]; concentration 10, time 105): 89188 and 106421 and 98442
- FMP fluorescence trace (Figure 4E) (SNAT2 [1]; concentration 30, time 45): 86227 and 101310 and 96479
- FMP fluorescence trace (Figure 4E) (SNAT2 [1]; concentration 30, time 60): 89361 and 105122 and 98804
- FMP fluorescence trace (Figure 4E) (SNAT2 [1]; concentration 30, time 75): 91535 and 107806 and 101327
- FMP fluorescence trace (Figure 4E) (SNAT2 [1]; concentration 30, time 90): 92748 and 109815 and 102783
- FMP fluorescence trace (Figure 4E) (SNAT2 [1]; concentration 30, time 105): 93673 and 111181 and 103799
Compound: C[N+](C)(C)CC(=O)O [Betaine, betaine]

- SNAT2 transport rate of proline (SNAT2 [2]; Concentration 0.01 uM, betaine resistant transport subtracted): 5.421 nmol / mg protein x 6 min
- SNAT2 transport rate of proline (SNAT2 [2]; Concentration 0.03 uM): 5.227 nmol / mg protein x 6 min
- SNAT2 transport rate of proline (SNAT2 [2]; Concentration 0.1 uM): 4.344 nmol / mg protein x 6 min
- SNAT2 transport rate of proline (SNAT2 [2]; Concentration 0.3 uM): 3.331 nmol / mg protein x 6 min
- SNAT2 transport rate of proline (SNAT2 [2]; Concentration 1 uM): 2.267 nmol / mg protein x 6 min
- SNAT2 transport rate of proline (SNAT2 [2]; Concentration 3 uM): -0.2231 nmol / mg protein x 6 min
- SNAT2 transport rate of proline (SNAT2 [2]; Concentration 10 uM): -0.6681 nmol / mg protein x 6 min
- IC50 (SNAT2 [2]; betaine-sensitive fraction of proline uptake, SKOV3 AA- (15h)): 800 ± 400 nM
- IC50 (SNAT2 [2]; in two different assays): 800 to 3000 nM
Compound: Cc1ccc(S(=O)(=O)N(C)c2ccsc2C(=O)NCc2ccccc2C(F)(F)F)cc1 [Compound 57_E, 3-(N-methyl (4-methylphenyl)sulfonamido)-N-(2-trifluoromethylbenzyl)thiophene-2-carboxamide]
- inhibition of [14C]alanine uptake (SKOV3 cells): did not inhibit any transporter in this cell line

Reference: article PMC9532951, “Identification and characterization of a novel SNAT2 (SLC38A2) inhibitor reveals synergy with glucose transport inhibition in cancer cells” (Frontiers in Pharmacology, 2022)
